Organism: Rattus norvegicus
Assay: Open TG-GATES - Regimen: Single
Format: toxicity, organism-based, Sprague-Dawley
Design: regimen Single, gender Male, age 6 weeks
Conditions: in vivo, po, 300 mg/kg, route gavage, dose level Low; for APTT / Bas / Eos / Fbg / Hb / Ht / Lym / MCH / MCHC / MCV / Mono / Neu / PT / Plat / RBC / Ret / WBC: tissue Blood; for KIDNEY_L / KIDNEY_R / KIDNEY_TOTAL: tissue Kidney; for LIVER: tissue Liver; for A/G / ALP / ALT / AST / BUN / CRE / Ca / Cl / DBIL / GLC / IP / K / LDH / Na / PL / RALB / TBIL / TC / TG / TP / gamma-GTP: tissue Plasma

CCN1CCCC1CNC(=O)c1cc(S(N)(=O)=O)ccc1OC (configuration not stated) [SULPIRIDE]
TERMINAL_BW (3 h): 202.3 g
APTT (3 h): 16.9 s
Bas (3 h): 0%
Eos (3 h): 0.8%
Fbg (3 h): 268.2 mg/dL
Hb (3 h): 12.9 g/dL
Ht (3 h): 40.1%
Lym (3 h): 83%
MCH (3 h): 20.5 pg
MCHC (3 h): 32.3%
MCV (3 h): 63.3 fL
Mono (3 h): 2.6%
Neu (3 h): 12.6%
PT (3 h): 13.5 s
Plat (3 h): 123.5 x10_4/uL
RBC (3 h): 633 x10_4/ul
Ret (3 h): 8.1%
WBC (3 h): 80.2 x10_2/uL
KIDNEY_L (3 h): 0.9 g
KIDNEY_R (3 h): 0.9 g
KIDNEY_TOTAL (3 h): 1.9 g
LIVER (3 h): 9.4 g
A/G (3 h): 0.9
ALP (3 h): 1455.4 IU/L
ALT (3 h): 35.6 IU/L
AST (3 h): 72.8 IU/L
BUN (3 h): 9.8 mg/dL
CRE (3 h): 0.2 mg/dL
Ca (3 h): 11.1 mg/dL
Cl (3 h): 105.8 meq/L
DBIL (3 h): 0.004 mg/dL
GLC (3 h): 173 mg/dL
IP (3 h): 8.2 mg/dL
K (3 h): 4.2 meq/L
LDH (3 h): 124.4 IU/L
Na (3 h): 141.6 meq/L
PL (3 h): 143.4 mg/dL
RALB (3 h): 2.5 g/dL
TBIL (3 h): 0.062 mg/dL
TC (3 h): 77.8 mg/dL
TG (3 h): 74.2 mg/dL
TP (3 h): 5.2 g/dL
gamma-GTP (3 h): 1.6 IU/L
TERMINAL_BW (6 h): 199.9 g
APTT (6 h): 16.7 s
Bas (6 h): 0%
Eos (6 h): 1%
Fbg (6 h): 287.4 mg/dL
Hb (6 h): 13.1 g/dL
Ht (6 h): 41.1%
Lym (6 h): 78%
MCH (6 h): 20.5 pg
MCHC (6 h): 31.9%
MCV (6 h): 64.2 fL
Mono (6 h): 2.8%
Neu (6 h): 17.4%
PT (6 h): 13.5 s
Plat (6 h): 122.9 x10_4/uL
RBC (6 h): 641.2 x10_4/ul
Ret (6 h): 8.4%
WBC (6 h): 95.5 x10_2/uL
KIDNEY_L (6 h): 0.9 g
KIDNEY_R (6 h): 0.9 g
KIDNEY_TOTAL (6 h): 1.8 g
LIVER (6 h): 8.9 g
A/G (6 h): 0.9
ALP (6 h): 1332.4 IU/L
ALT (6 h): 36.4 IU/L
AST (6 h): 68.4 IU/L
BUN (6 h): 9.6 mg/dL
CRE (6 h): 0.2 mg/dL
Ca (6 h): 11 mg/dL
Cl (6 h): 104.8 meq/L
DBIL (6 h): 0.01 mg/dL
GLC (6 h): 179.4 mg/dL
IP (6 h): 9.4 mg/dL
K (6 h): 4.3 meq/L
LDH (6 h): 125.8 IU/L
Na (6 h): 141.2 meq/L
PL (6 h): 137.6 mg/dL
RALB (6 h): 2.5 g/dL
TBIL (6 h): 0.074 mg/dL
TC (6 h): 75.4 mg/dL
TG (6 h): 59 mg/dL
TP (6 h): 5.2 g/dL
gamma-GTP (6 h): 1.2 IU/L
TERMINAL_BW (9 h): 198.2 g
APTT (9 h): 16.3 s
Bas (9 h): 0.2%
Eos (9 h): 0.8%
Fbg (9 h): 287.2 mg/dL
Hb (9 h): 13.3 g/dL
Ht (9 h): 41%
Lym (9 h): 77.4%
MCH (9 h): 20.6 pg
MCHC (9 h): 32.3%
MCV (9 h): 63.7 fL
Mono (9 h): 2.4%
Neu (9 h): 19%
PT (9 h): 13.4 s
Plat (9 h): 129.5 x10_4/uL
RBC (9 h): 644.4 x10_4/ul
Ret (9 h): 7.6%
WBC (9 h): 83.6 x10_2/uL
KIDNEY_L (9 h): 0.9 g
KIDNEY_R (9 h): 0.9 g
KIDNEY_TOTAL (9 h): 1.8 g
LIVER (9 h): 7.7 g
A/G (9 h): 0.9
ALP (9 h): 1287.4 IU/L
ALT (9 h): 34.4 IU/L
AST (9 h): 70.4 IU/L
BUN (9 h): 7.4 mg/dL
CRE (9 h): 0.1 mg/dL
Ca (9 h): 10.4 mg/dL
Cl (9 h): 106.8 meq/L
DBIL (9 h): 0 mg/dL
GLC (9 h): 168.4 mg/dL
IP (9 h): 9.9 mg/dL
K (9 h): 3.7 meq/L
LDH (9 h): 116.4 IU/L
Na (9 h): 142.6 meq/L
PL (9 h): 118.4 mg/dL
RALB (9 h): 2.5 g/dL
TBIL (9 h): 0.07 mg/dL
TC (9 h): 70 mg/dL
TG (9 h): 29.8 mg/dL
TP (9 h): 5.2 g/dL
gamma-GTP (9 h): 1.2 IU/L
TERMINAL_BW (24 h): 215.3 g
APTT (24 h): 17.5 s
Bas (24 h): 0.2%
Eos (24 h): 1%
Fbg (24 h): 305 mg/dL
Hb (24 h): 13.5 g/dL
Ht (24 h): 41.4%
Lym (24 h): 78%
MCH (24 h): 20.9 pg
MCHC (24 h): 32.6%
MCV (24 h): 64.1 fL
Mono (24 h): 2.6%
Neu (24 h): 17.4%
PT (24 h): 12.7 s
Plat (24 h): 130.7 x10_4/uL
RBC (24 h): 646 x10_4/ul
Ret (24 h): 7%
WBC (24 h): 93.3 x10_2/uL
KIDNEY_L (24 h): 0.9 g
KIDNEY_R (24 h): 0.9 g
KIDNEY_TOTAL (24 h): 1.8 g
LIVER (24 h): 9.9 g
A/G (24 h): 0.9
ALP (24 h): 1728.6 IU/L
ALT (24 h): 44.2 IU/L
AST (24 h): 66.4 IU/L
BUN (24 h): 14.8 mg/dL
CRE (24 h): 0.2 mg/dL
Ca (24 h): 11.1 mg/dL
Cl (24 h): 106.4 meq/L
DBIL (24 h): 0.014 mg/dL
GLC (24 h): 180.4 mg/dL
IP (24 h): 7.4 mg/dL
K (24 h): 4.4 meq/L
LDH (24 h): 179.2 IU/L
Na (24 h): 141.6 meq/L
PL (24 h): 156.2 mg/dL
RALB (24 h): 2.7 g/dL
TBIL (24 h): 0.064 mg/dL
TC (24 h): 79.2 mg/dL
TG (24 h): 134.4 mg/dL
TP (24 h): 5.7 g/dL
gamma-GTP (24 h): 1 IU/L

— ChEMBL document CHEMBL3885861, “Open TG-GATES”
